Measured values: the kinase profiling compilation of Christmann-Franck et al. (2016)

Tests used:
Test in all cases: KINOMEscan competition binding
[1] = target: ABL1 (human), P00519 [F317I]
MAP3K3 (human) = MAP3K3 (human) (UniProt Q99759)
PRKD2 (human) = PRKD2 (human) (UniProt Q9BZL6)
PI4KB (human) = PI4KB (human) (UniProt Q9UBF8)
PRKCD (human) = PRKCD (human) (UniProt Q05655)
[2] = target: JAK1 JH1 catalytic (human) (UniProt P23458)
CDK16 (human) = CDK16 (human) (UniProt Q00536)
DDR1 (human) = DDR1 (human) (UniProt Q08345)
TXK (human) = TXK (human) (UniProt P42681)
ADCK4 (human) = ADCK4 (human) (UniProt Q96D53)
FGFR1 (human) = FGFR1 (human) (UniProt P11362)
MAP3K9 (human) = MAP3K9 (human) (UniProt P80192)
[3] = target: BRAF (human), P15056 [V600E]
CDKL2 (human) = CDKL2 (human) (UniProt Q92772)
ABL2 (human) = ABL2 (human) (UniProt P42684)
GAK (human) = GAK (human) (UniProt O14976)
GAK (human), sequence (O14976 whole entry, looked up): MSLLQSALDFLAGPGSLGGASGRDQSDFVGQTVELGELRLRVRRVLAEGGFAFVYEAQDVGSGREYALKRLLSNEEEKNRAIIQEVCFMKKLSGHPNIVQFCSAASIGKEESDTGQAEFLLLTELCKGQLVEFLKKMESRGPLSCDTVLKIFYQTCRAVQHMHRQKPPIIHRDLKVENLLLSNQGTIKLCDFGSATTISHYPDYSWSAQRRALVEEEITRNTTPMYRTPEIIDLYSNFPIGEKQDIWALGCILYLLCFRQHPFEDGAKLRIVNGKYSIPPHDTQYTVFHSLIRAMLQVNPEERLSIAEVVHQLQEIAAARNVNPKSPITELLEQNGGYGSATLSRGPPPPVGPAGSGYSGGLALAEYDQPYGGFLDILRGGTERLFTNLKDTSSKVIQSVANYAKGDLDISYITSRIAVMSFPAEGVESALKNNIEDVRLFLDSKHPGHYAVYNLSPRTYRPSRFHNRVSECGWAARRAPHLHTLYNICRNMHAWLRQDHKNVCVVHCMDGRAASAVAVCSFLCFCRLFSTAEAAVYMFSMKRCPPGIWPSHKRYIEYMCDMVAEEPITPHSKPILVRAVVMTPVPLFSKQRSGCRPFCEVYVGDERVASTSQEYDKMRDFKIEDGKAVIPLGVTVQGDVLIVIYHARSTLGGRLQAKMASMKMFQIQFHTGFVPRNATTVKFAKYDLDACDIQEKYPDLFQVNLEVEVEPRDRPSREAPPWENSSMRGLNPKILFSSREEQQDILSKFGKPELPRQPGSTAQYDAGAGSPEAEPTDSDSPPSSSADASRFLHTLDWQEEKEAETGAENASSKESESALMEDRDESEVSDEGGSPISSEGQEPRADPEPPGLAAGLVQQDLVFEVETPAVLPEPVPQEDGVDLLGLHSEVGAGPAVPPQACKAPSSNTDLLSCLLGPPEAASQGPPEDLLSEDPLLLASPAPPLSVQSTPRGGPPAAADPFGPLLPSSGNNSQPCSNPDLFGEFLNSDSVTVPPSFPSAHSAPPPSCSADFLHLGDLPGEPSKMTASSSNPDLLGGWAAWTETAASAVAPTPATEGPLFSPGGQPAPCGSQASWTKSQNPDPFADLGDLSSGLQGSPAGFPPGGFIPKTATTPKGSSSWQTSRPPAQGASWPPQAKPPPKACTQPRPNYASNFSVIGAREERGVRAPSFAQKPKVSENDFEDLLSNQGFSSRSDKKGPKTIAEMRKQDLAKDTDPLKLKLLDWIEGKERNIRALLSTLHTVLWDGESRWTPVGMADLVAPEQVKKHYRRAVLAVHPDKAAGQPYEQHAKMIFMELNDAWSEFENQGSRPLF

CDK18 (human) = CDK18 (human) (UniProt Q07002)
MINK1 (human) = MINK1 (human) (UniProt Q8N4C8)
MAPK9 (human) = MAPK9 (human) (UniProt P45984)
IKBKB (human) = IKBKB (human) (UniProt O14920)
HIPK3 (human) = HIPK3 (human) (UniProt Q9H422)
YSK4 (human) = YSK4 (human) (UniProt Q56UN5)
YSK4 (human), sequence (Q56UN5 whole entry, looked up): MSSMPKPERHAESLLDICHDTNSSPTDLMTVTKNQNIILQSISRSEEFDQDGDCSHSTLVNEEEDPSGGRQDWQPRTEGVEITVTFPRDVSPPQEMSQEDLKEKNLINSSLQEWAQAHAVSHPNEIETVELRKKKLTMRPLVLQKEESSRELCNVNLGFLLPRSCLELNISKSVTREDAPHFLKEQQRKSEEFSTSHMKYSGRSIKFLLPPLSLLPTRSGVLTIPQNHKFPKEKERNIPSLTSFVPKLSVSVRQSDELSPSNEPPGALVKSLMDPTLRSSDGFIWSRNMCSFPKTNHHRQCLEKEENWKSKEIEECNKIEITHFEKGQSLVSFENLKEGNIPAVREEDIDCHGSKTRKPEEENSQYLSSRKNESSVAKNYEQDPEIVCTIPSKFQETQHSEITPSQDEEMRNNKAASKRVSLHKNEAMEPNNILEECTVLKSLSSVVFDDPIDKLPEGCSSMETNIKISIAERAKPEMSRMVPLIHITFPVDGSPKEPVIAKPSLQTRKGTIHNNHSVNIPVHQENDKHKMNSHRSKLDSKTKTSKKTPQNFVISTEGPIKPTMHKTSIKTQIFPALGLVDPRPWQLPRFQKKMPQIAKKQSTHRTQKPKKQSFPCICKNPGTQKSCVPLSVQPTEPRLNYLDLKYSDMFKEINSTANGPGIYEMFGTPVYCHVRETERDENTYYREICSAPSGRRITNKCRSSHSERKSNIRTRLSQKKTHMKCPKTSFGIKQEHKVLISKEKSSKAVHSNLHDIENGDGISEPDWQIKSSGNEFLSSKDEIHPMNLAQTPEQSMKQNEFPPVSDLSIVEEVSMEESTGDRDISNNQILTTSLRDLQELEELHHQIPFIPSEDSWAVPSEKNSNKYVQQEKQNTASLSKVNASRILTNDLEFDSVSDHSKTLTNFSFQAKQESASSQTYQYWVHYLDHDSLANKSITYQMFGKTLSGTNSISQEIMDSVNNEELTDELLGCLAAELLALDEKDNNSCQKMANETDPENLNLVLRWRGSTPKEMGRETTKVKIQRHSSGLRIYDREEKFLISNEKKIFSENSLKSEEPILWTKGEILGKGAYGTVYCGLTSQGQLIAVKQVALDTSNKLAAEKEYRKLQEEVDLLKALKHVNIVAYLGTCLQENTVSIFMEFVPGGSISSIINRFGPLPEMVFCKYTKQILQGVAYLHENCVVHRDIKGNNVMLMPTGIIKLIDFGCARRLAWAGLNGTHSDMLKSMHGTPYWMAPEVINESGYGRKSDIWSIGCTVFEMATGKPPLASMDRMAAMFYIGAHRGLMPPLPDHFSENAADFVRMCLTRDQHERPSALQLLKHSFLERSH

RPS6KA5 KD1 (human) = RPS6KA5 KD1 (human) (UniProt O75582)
NLK (human) = NLK (human) (UniProt Q9UBE8)
FYN (human) = FYN (human) (UniProt P06241)
CDK15 (human) = CDK15 (human) (UniProt Q96Q40)
[4] = target: FGFR3 (human), P22607 [G697C]
[5] = target: FLT3 (human), P36888 [D835H]
CSNK1E (human) = CSNK1E (human) (UniProt P49674)
CDK5 (human) = CDK5 (human) (UniProt Q00535)
SLK (human) = SLK (human) (UniProt Q9H2G2)
RIPK2 (human) = RIPK2 (human) (UniProt O43353)
STK36 (human) = STK36 (human) (UniProt Q9NRP7)
STK36 (human), sequence (Q9NRP7 whole entry, looked up): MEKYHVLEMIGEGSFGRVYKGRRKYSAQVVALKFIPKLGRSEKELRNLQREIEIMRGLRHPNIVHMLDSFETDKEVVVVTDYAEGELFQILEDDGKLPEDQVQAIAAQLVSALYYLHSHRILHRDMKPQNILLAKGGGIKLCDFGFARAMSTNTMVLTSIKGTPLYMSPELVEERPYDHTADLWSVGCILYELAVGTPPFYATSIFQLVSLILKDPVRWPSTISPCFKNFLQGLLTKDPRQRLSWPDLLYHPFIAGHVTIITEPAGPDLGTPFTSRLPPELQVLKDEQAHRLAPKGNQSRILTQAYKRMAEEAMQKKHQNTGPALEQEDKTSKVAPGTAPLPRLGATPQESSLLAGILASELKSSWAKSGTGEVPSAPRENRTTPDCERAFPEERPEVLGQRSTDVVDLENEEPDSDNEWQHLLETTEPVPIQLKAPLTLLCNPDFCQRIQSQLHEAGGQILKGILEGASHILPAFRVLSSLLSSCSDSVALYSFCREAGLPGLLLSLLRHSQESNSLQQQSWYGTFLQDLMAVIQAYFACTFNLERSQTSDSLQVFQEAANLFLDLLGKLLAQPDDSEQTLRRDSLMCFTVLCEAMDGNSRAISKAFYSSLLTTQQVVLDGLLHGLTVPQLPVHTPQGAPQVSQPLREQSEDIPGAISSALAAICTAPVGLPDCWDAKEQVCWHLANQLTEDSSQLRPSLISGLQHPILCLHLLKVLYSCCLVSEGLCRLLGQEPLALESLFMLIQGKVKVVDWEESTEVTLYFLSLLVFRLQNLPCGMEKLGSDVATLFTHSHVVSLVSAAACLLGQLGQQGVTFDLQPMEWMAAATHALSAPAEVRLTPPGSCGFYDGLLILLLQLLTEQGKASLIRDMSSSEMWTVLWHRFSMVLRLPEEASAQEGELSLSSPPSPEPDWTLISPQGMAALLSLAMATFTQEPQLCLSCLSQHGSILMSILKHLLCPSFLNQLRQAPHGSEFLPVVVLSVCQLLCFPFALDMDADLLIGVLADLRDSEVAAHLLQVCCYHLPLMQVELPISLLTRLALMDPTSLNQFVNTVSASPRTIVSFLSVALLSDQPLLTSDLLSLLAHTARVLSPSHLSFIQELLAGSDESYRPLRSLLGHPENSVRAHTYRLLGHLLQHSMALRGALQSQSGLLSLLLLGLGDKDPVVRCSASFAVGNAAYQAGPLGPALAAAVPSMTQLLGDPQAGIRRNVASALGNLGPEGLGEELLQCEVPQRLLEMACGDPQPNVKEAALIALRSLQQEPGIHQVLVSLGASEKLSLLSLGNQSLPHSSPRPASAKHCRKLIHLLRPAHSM

CDKL5 (human) = CDKL5 (human) (UniProt O76039)
MAP4K4 (human) = MAP4K4 (human) (UniProt O95819)
MAP3K2 (human) = MAP3K2 (human) (UniProt Q9Y2U5)
TTK (human) = TTK (human) (UniProt P33981)
GSK3A (human) = GSK3A (human) (UniProt P49840)
GSK3A (human), sequence (P49840 whole entry, looked up): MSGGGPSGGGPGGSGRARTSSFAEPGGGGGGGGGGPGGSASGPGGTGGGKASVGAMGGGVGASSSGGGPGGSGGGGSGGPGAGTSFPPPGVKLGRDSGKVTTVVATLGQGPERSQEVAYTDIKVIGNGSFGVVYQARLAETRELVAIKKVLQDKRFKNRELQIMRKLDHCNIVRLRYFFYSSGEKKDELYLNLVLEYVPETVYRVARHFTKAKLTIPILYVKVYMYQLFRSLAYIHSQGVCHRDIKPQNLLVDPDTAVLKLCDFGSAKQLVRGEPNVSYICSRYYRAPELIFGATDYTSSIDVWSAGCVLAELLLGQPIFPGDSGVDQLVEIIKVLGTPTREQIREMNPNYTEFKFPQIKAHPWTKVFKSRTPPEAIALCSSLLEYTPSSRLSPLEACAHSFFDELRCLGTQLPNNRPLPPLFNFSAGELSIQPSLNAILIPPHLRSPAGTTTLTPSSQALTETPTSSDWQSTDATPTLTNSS

TEC (human) = TEC (human) (UniProt P42680)
MYO3B (human) = MYO3B (human) (UniProt Q8WXR4)
STK33 (human) = STK33 (human) (UniProt Q9BYT3)

MAP3K3 (human), sequence (Q99759 whole entry, looked up): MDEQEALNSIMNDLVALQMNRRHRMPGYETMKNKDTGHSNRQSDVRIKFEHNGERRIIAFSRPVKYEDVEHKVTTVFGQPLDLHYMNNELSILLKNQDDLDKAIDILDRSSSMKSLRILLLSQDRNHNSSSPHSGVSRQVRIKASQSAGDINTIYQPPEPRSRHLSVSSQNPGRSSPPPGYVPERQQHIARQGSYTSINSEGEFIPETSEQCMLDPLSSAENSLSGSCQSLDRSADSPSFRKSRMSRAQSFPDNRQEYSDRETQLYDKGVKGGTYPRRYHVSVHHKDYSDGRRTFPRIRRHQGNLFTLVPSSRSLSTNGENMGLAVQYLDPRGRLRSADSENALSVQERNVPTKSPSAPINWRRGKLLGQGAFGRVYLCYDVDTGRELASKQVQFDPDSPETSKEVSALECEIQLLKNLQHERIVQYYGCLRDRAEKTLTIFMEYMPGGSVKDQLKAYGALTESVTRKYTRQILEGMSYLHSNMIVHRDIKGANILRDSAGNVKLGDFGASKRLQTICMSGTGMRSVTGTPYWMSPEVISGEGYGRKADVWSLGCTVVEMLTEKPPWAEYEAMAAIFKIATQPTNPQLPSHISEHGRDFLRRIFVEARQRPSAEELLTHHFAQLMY

With `COc1cc2ncnc(Oc3cccc(NC(=O)Nc4cc(C(C)(C)C(F)(F)F)on4)c3)c2cc1OC` the Kd [1] was 0.0025 µM, the Kd (MAP3K3 (human)) was 11 µM and the Kd (PRKD2 (human)) was 19 µM. It also gave a Kd (PI4KB (human)) of 29 µM, a Kd (PRKCD (human)) of 1.2 µM and a Kd [2] of 29 µM. The Kd (CDK16 (human)) was 1.6 µM, the Kd (DDR1 (human)) was 0.0006 µM and the Kd (TXK (human)) was 0.19 µM. The Kd (ADCK4 (human)) was 26 µM, the Kd (FGFR1 (human)) was 0.84 µM and the Kd (MAP3K9 (human)) was 1.5 µM. It also gave a Kd [3] of 0.014 µM, a Kd (CDKL2 (human)) of 0.043 µM and a Kd (ABL2 (human)) of 0.014 µM. It also gave a Kd (GAK (human)) of 2.3 µM, a Kd (CDK18 (human)) of 1.1 µM and a Kd (MINK1 (human)) of 0.36 µM. For the same compound, the Kd (MAPK9 (human)) was 0.0041 µM, the Kd (IKBKB (human)) was 0.96 µM and the Kd (HIPK3 (human)) was 0.12 µM. For the same compound, the Kd (YSK4 (human)) was 0.0037 µM, the Kd (RPS6KA5 KD1 (human)) was 13 µM and the Kd (NLK (human)) was 0.27 µM. It also gave a Kd (FYN (human)) of 0.13 µM, a Kd (CDK15 (human)) of 0.43 µM and a Kd [4] of 3.1 µM. It also gave a Kd [5] of 0.067 µM, a Kd (CSNK1E (human)) of 16 µM and a Kd (CDK5 (human)) of 11 µM. The Kd (SLK (human)) was 0.02 µM, the Kd (RIPK2 (human)) was 0.016 µM and the Kd (STK36 (human)) was 4.7 µM. For the same compound, the Kd (CDKL5 (human)) was 0.092 µM, the Kd (MAP4K4 (human)) was 0.056 µM and the Kd (MAP3K2 (human)) was 13 µM. For the same compound, the Kd (TTK (human)) was 1.7 µM, the Kd (GSK3A (human)) was 6 µM and the Kd (TEC (human)) was 6 µM. The Kd (MYO3B (human)) was 6.8 µM and the Kd (STK33 (human)) was 18 µM.
